Calls of active or inactive are those of the source. The calls are words filed in the database; no cut-off is given here.
Experiments:
HeLa [1] = test: Induction of autophagy mediated Halotag-fused EGFP (unknown origin) degradation expressed in human HeLa cells assessed as reduction in EGFP-HT substrate level at 0.01 to 1 uM measured after 24 hrs by fluorescence microscopic analysis; format: cell-based; conditions: dose 0.01-1 µM
HeLa [2] = test: Induction of autophagy mediated Halotag-fused EGFP (unknown origin) degradation expressed in human HeLa cells assessed as reduction in EGFP-HT substrate level at 0.1 to 10 uM measured after 24 hrs by fluorescence microscopic analysis; format: cell-based; conditions: dose 0.1-10 µM
MEF [3] = test: Induction of EGFP-tagged FKBP12 degradation in […] MEF cells assessed as reduction in FKBP12 level incubated for 48 hrs by immunoblot analysis; format: cell-based; conditions: Mus musculus
HeLa [4] = test: Effect on FKBP12 mRNA transcription level in human HeLa cells at 0.1 to 10 uM incubated for 48 hrs by RT-PCR analysis; format: functional, cell-based; conditions: dose 0.1-10 µM
HeLa [5] = test: Induction of EGFP-tagged FKBP12 degradation in human HeLa cells assessed as reduction in FKBP12 protein level at 0.001 to 10 uM incubated for 48 hrs in presence of bafilomycin Al treated for last 12 hrs by immunoblot analysis; format: cell-based; conditions: dose 0.001-10 µM
MEF [6] = test: Induction of EGFP-tagged FKBP12 degradation in p62-/- MEF cells assessed as reduction in FKBP12 level incubated for 48 hrs by immunoblot analysis; format: cell-based; conditions: Mus musculus
HeLa [7] = test: Induction of EGFP-tagged FKBP12 degradation in human HeLa cells assessed as protein knockdown at 1 uM incubated for 48 hrs by immunoblot analysis; format: cell-based
HeLa [8] = test: Induction of EGFP-tagged FKBP12 degradation in human HeLa cells assessed as reduction in FKBP12 protein level at 1 to 10 uM incubated for 48 hrs in presence of 100 uM 8H-FBnG by immunoblot analysis; format: cell-based; conditions: dose 1-10 µM
HeLa [9] = test: Induction of autophagy mediated Halotag-fused EGFP (unknown origin) degradation expressed in human HeLa cells assessed as reduction in EGFP-HT substrate level at <1 uM measured after 24 hrs by fluorescence microscopic analysis; format: cell-based
HeLa [10] = test: Cytotoxicity against human HeLa cells expressing Halotag-fused EGFP assessed as reduction in cell survival rate at 0.001 to 100 uM; format: toxicity, cell-based; conditions: dose 0.001-100 µM
HeLa [11] = test: Induction of autophagy mediated Rosella/Halotag-fused EGFP (unknown origin) degradation expressed in human HeLa cells assessed as lysosomal degradation of EGFP-HT substrate at 1 uM incubated for 24 hrs by fluorescence microscopic analysis; format: cell-based
MEF [12] = test: Induction of autophagy mediated Halotag-fused EGFP (unknown origin) degradation transiently expressed in Atg5+/+ MEF cells assessed as reduction in EGFP-HT substrate level at 1 uM measured after 24 hrs by fluorescence microscopic analysis; format: cell-based
MEF [13] = test: Induction of autophagy mediated Halotag-fused EGFP (unknown origin) degradation transiently expressed in Atg5-/- MEF cells assessed as reduction in EGFP-HT substrate level at 1 uM measured after 24 hrs by fluorescence microscopic analysis; format: cell-based
HeLa [14] = test: Induction of autophagy mediated Halotag-fused EGFP (unknown origin) degradation expressed in human HeLa cells assessed as reduction in EGFP-HT substrate level at 1 to 10 uM measured after 12 to 24 hrs by fluorescence microscopic analysis; format: cell-based; conditions: dose 1-10 µM, time 12-24 hrs
HeLa [15] = test: Induction of autophagy mediated Halotag-fused EGFP (unknown origin) degradation expressed in human HeLa cells assessed as reduction in EGFP-HT substrate level at 1 uM incubated for 24 hrs in presence of bafilomycin Al by fluorescence microscopic analysis; format: cell-based
HeLa [16] = test: Induction of autophagy mediated Halotag-fused EGFP (unknown origin) degradation expressed in human HeLa cells assessed as reduction in EGFP-HT substrate level measured after 24 hrs by fluorescence microscopic analysis; format: cell-based; conditions: dose 1-10 µM

Nc1nc2c(nc(-c3cccc(OCCOCCOCCOCCOCCOCCCCCCCl)c3)n2Cc2ccc(F)cc2)c(=O)[nH]1
Activity (HeLa [1]): Active

COc1ccc(Cn2c(SCC(NC(C)=O)C(=O)NCCOCCOCCOCCOCCOCCCCCCCl)nc3c(=O)[nH]c(N)nc32)cc1 (single isomer, unassigned)
Activity (HeLa [1]): inactive

Nc1nc2c(nc(-c3cn(CCOCCOCCOCCOCCOCCCCCCCl)nn3)n2Cc2ccc(F)cc2)c(=O)[nH]1
Activity (HeLa [1]): Active

CC(=O)NC(CSc1nc2c(=O)[nH]c(N)nc2n1Cc1cccc(F)c1)C(=O)NCCOCCOCCOCCOCCOCCCCCCCl (single isomer, unassigned)
Activity (HeLa [1]): inactive

O=c1[nH]cnc2c1nc(-c1cnn(CCOCCOCCOCCOCCOCCCCCCCl)c1)n2Cc1ccc(F)cc1
Activity (HeLa [2]): inactive

Nc1nc2c(nc(-c3ccc(OCCOCCOCCOCCOCCOCCCCCCCl)cc3)n2Cc2ccc(F)cc2)c(=O)[nH]1
Activity (HeLa [1]): Active

Fc1ccc(Cn2c(-c3cnn(CCOCCOCCOCCOCCOCCCCCCCl)c3)nc3ccccc32)cc1
Activity (HeLa [2]): inactive

Fc1ccc(Cn2ccnc2-c2cnn(CCOCCOCCOCCOCCOCCCCCCCl)c2)cc1
Activity (HeLa [2]): inactive

CC(=O)NC(CSc1nc2c(=O)[nH]c(N)nc2n1Cc1ccccc1F)C(=O)NCCOCCOCCOCCOCCOCCCCCCCl (single isomer, unassigned)
Activity (HeLa [1]): inactive

CCC(C)(C)C(=O)C(=O)N1CCCC[C@H]1C(=O)O[C@H](CCc1ccc(OC)c(OC)c1)c1cccc(NC(=O)CCC(=O)NCCCOCCOCCOCCCn2cc(-c3nc4c(=O)[nH]c(N)nc4n3Cc3ccc(F)cc3)cn2)c1
Activity (MEF [3]): inactive | Activity (HeLa [4]): inactive | Activity (HeLa [5]): inactive | Activity (MEF [6]): inactive | Activity (HeLa [7]): Active | Activity (HeLa [8]): inactive

Cn1c(=O)c2nc(-c3cnn(CCOCCOCCOCCOCCOCCCCCCCl)c3)n(Cc3ccc(F)cc3)c2n(C)c1=O
Activity (HeLa [2]): inactive

CC(=O)NC(CSc1nc2c(=O)[nH]c(N)nc2n1Cc1ccc(S(C)(=O)=O)cc1)C(=O)NCCOCCOCCOCCOCCOCCCCCCCl (single isomer, unassigned)
Activity (HeLa [1]): inactive

Nc1nc2c(nc(-c3cnn(CCOCCOCCOCCOCCOCCCCCCCl)c3)n2Cc2ccc(F)cc2)c(=O)[nH]1
Activity (HeLa [9]): Active | Activity (HeLa [10]): Non-Toxic | Activity (HeLa [11]): Active | Activity (HeLa [1]): Active | Activity (MEF [12]): Active | Activity (MEF [13]): inactive | Activity (HeLa [14]): Active | Activity (HeLa [15]): inactive

CC(=O)NC(CSc1nc2c(=O)[nH]c(N)nc2n1Cc1ccc(C)cc1)C(=O)NCCOCCOCCOCCOCCOCCCCCCCl (single isomer, unassigned)
Activity (HeLa [1]): inactive

CC(=O)NC(CSc1nc2c(=O)[nH]c(N)nc2n1Cc1ccc(C#N)cc1)C(=O)NCCOCCOCCOCCOCCOCCCCCCCl (single isomer, unassigned)
Activity (HeLa [1]): inactive

Nc1ncnc2c1nc(-c1cnn(CCOCCOCCOCCOCCOCCCCCCCl)c1)n2Cc1ccc(F)cc1
Activity (HeLa [2]): inactive

CC(=O)NC(CSc1nc2c(=O)[nH]c(N)nc2n1Cc1ccc(Cl)cc1)C(=O)NCCOCCOCCOCCOCCOCCCCCCCl (single isomer, unassigned)
Activity (HeLa [16]): Dose-Dependent Effect

CC(=O)NC(CSc1nc2c(=O)[nH]c(N)nc2n1Cc1ccccc1)C(=O)NCCOCCOCCOCCOCCOCCCCCCCl (single isomer, unassigned)
Activity (HeLa [1]): inactive

Source: ChEMBL document CHEMBL5321274, “Second-Generation AUTACs for Targeted Autophagic Degradation” (J Med Chem, 2023)
